From patent US10093660B2, “Sulfoximine substituted quinazolines for pharmaceutical compositions” (EVOTEC INTERNATIONAL GMBH, priority 2013, dated 2018) come the findings set out here.

Assay [1] concerns the target MNK2a (Homo sapiens (Human), UniProt Q9HBH9). As to the kind of experiment: MNK2a in vitro kinase assay (Assay 2), ADP-Glo. The format is biochemical. Particulars: assay 2; read-out: MNK2 IC50. The source says: B. MNK2a In Vitro Kinase Assay (Assay 2)
In assay [2] the target is MNK1a (Homo sapiens (Human), UniProt Q9BUB5). As to the kind of experiment: MNK1 in vitro kinase assay (Assay 3), Z'-LYTE. The format is biochemical. Conditions: for inhibition at 1 µM: compound concentration of 1 μM, read-out: MNK1 % INH. The source says:
C. MNK1 In Vitro Kinase Assay (Assay 3)
MNK1 Data can be obtained from the MNK1 Z′-LYTE® assay. The MNK1 Z′-LYTE® screening protocol and assay conditions are also described on www.invitrogen.com.
The assay is described as follows:
The Z′-LYTE® biochemical assay employs a fluorescence-based, coupled-enzyme format and is based on the differential sensitivity of phosphorylated and non-phosphorylated peptides to proteolytic cleavage. The peptide substrate is labeled with two fluorophores—one at each end—that make up a FRET pair.
In the primary reaction, the kinase transfers the gamma-phosphate of ATP to a single tyrosine, serine or threonine residue in a synthetic FRET-peptide. In the secondary reaction, a site-specific protease recognizes and cleaves non-phosphorylated FRET-peptides. Phosphorylation of FRET-peptides suppresses cleavage by the Development Reagent. Cleavage disrupts FRET between the donor (i.e., coumarin) and acceptor (i.e., fluorescein) fluorophores on the FRET-peptide, whereas uncleaved, phosphorylated FRET-peptides maintain FRET. A ratiometric method, which calculates the ratio (the Emission Ratio) of donor emission to acceptor emission after excitation of the donor fluorophore at 400 nm, is used to quantitate reaction progress, as shown in the equation below.
The 2×MKNK1 (MNK1) mixture is prepared in 50 mM HEPES pH 7.5, 0.01% BRIJ-35, 10 mM MgCl2, 4 mM MnCl2, 1 mM EGTA, 2 mM DTT.
The Test Compounds are screened in 1% DMSO (final) in the well.
All Peptide/Kinase Mixtures are diluted to a 2× working concentration in the MNK1 Kinase Buffer.
All ATP Solutions are diluted to a 4× working concentration in Kinase Buffer (50 mM HEPES pH 7.5, 0.01% BRIJ-35, 10 mM MgCl2, 1 mM EGTA).
Development Reagent Solution:
The Development Reagent is diluted in Development Buffer
1. 2.5 μL—4× Test Compound
2. 5 μL—2× Peptide/Kinase Mixture
5. 60-minute Kinase Reaction incubation at room temperature
6. 5 μL—Development Reagent Solution
8. 60-minute Development Reaction incubation at room temperature
9. Read on fluorescence plate reader and analyze the data
Control C0%=Average Coumarin emission signal of the 0% Phos. Control F100%=Average Fluorescein emission signal of the 100% Phos. Control F0%=Average Fluorescein emission signal of the 0% Phos. Control Graphing Software
SelectScreen® Kinase Profiling Service uses XLfit from IDBS. […] The activity of MNK proteins can be assayed also by other in vitro kinase assay formats. […] In general, MNK kinase assays can be performed such that a MNK substrate such as a protein or a peptide, which may or may not include modifications as further described below, or others are phosphorylated by MNK proteins having enzymatic activity in vitro. The activity of a candidate agent can then be determined via its ability to decrease the enzymatic activity of the MNK protein. The kinase activity may be detected by change of the chemical, physical or immunological properties of the substrate due to phosphorylation.

Chain of MNK1a (Q9BUB5 other isoform, or with tags, fused parts or gaps): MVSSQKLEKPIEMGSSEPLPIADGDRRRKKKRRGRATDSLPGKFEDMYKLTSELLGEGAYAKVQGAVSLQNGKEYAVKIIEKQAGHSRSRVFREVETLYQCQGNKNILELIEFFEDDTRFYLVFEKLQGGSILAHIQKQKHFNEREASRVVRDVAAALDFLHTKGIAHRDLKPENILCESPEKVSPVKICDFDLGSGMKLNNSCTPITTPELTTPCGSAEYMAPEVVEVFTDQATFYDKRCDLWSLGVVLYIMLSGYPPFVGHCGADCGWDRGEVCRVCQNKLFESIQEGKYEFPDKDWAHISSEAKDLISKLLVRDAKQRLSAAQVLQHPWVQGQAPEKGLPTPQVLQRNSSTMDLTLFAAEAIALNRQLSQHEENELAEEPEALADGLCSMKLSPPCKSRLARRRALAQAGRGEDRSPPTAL
Chain of MNK2a (Q9HBH9 whole entry): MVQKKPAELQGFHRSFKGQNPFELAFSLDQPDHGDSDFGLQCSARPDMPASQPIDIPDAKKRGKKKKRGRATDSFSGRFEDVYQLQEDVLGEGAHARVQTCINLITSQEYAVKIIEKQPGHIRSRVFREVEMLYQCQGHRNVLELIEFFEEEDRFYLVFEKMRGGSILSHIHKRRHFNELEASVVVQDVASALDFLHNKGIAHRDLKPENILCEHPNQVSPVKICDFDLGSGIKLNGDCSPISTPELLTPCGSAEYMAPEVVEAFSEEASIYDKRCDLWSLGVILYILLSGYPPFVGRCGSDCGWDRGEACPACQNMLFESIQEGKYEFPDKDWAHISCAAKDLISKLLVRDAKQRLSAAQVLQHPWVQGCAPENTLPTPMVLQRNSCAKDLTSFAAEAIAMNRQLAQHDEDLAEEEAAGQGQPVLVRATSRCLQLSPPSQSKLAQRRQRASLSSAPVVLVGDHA

On to `CCOc1cc(N=S(C)(C)=O)cc2ncnc(Nc3ccc(F)cc3O[C@H]3COC[C@@H]3O)c12` [Example 9.6], for which the IC50 in assay [1] was found to be 8 nM. Moreover, the inhibition at 1 µM in assay [2] came to 94%.

Turning to `COc1cc(N=S(C)(=O)C(C)C)cc2ncnc(Nc3ccc(F)cc3O[C@H]3COC[C@H]3O)c12` (mixture of isomers) [Example 9.20], in assay [1], the IC50 was found to be 23 nM. Besides, the inhibition at 1 µM in assay [2] turned out to be 87%.

For the compound `Cc1cc(N=S2(=O)CCCC2)cc2ncnc(Nc3ccc(F)cc3O[C@H]3COC[C@H]3O)c12` (racemic) [Example 2.8], the IC50 in assay [1] amounted to 2 nM. For the same compound, the inhibition at 1 µM in assay [2] was 100%.

As for `Cc1cc(N=S2(=O)CCC2)cc2ncnc(Nc3ccc(Cl)nc3O[C@@H]3COC[C@H]3O)c12` [Example 2.53], the IC50 in assay [1] was 4 nM. The inhibition at 1 µM in assay [2] was 83%.

Consider `COc1cc(N=S2(=O)CCC2)cc2ncnc(Nc3ccc(F)cc3O[C@H]3COC[C@H]3O)c12` (racemic) [Example 9.16], for which, in assay [1], the IC50 was found to be 7 nM. Also, in assay [2], the inhibition at 1 µM came out at 98%.

For the compound `O=S1(=Nc2cc(F)c3c(Nc4ccc(Cl)nc4O[C@H]4COC[C@@H]4O)ncnc3c2)CCC1` [Example 1.24], the IC50 in assay [1] is 3 nM. Further, in assay [2], the inhibition at 1 µM turned out to be 91%.

For `Cc1cc(N=S2(=O)CCCC2)cc2ncnc(Nc3ccc(Cl)nc3O[C@@H]3COC[C@H]3O)c12` [Example 2.54], the IC50 in assay [1] stood at 3 nM; in assay [2] it was 66 nM.

For `CO[C@H]1COC[C@H]1Oc1ncccc1Nc1ncnc2cc(N=S3(=O)CCCC3)cc(C)c12` (single isomer, unassigned) [Example 14.1], the IC50 in assay [1] stood at 1 nM. In addition, in assay [2], the inhibition at 1 µM worked out at 97%.

Take `Cc1cc(N=S2(=O)CCCC2)cc2ncnc(Nc3cccnc3O[C@H]3COC[C@H]3OCCF)c12` (racemic) [Example 2.25]: the figures for the IC50 in assay [1] and in assay [2] were 2 nM and 46 nM, respectively.

For `O=S1(=Nc2cc(Cl)c3c(Nc4ccc(F)cc4O[C@@H]4COC[C@H]4O)ncnc3c2)CCCC1` [Example 1.25], in assay [1], the IC50 stood at 2 nM. In addition, the inhibition at 1 µM in assay [2] came to 97%.

As to `Cc1cc(N=[S@@](C)(=O)c2ccccc2)cc2ncnc(Nc3ccc(F)cc3O[C@@H]3COC[C@@H]3O)c12` [Example 2.64], the IC50 in assay [1] worked out at 9 nM. For the same compound, in assay [2], the inhibition at 1 µM was determined as 88%.

For `CO[C@@H]1CN(C(=O)OCc2ccccc2)C[C@H]1Oc1ncccc1Nc1ncnc2cc(N=S(C)(C)=O)cc(C)c12` [Example 2.17], in assay [1], the IC50 came to 21 nM. Moreover, the inhibition at 1 µM in assay [2] came out at 18%.

Turning to `COCCO[C@@H]1COC[C@@H]1Oc1cc(F)ccc1Nc1ncnc2cc(N=S(C)(C)=O)cc(C)c12` (racemic) [Example 7.1], the IC50 in assay [1] came out at 45 nM. In addition, the inhibition at 1 µM in assay [2] stood at 62%.

For the compound `CO[C@@H]1COC[C@H]1Oc1cc(F)ccc1Nc1ncnc2cc(N=S(C)(C)=O)cc(C)c12` (racemic) [Example 13.2], the half-inhibitory concentration (IC50) in assay [1] is 13 nM. The inhibition at 1 µM in assay [2] amounted to 69%.

For the compound `CO[C@@H]1CN(CC(F)F)C[C@H]1Oc1cc(F)ccc1Nc1ncnc2cc(N=S(C)(C)=O)cc(C)c12` [Example 5.4], in assay [1], the IC50 was found to be 44 nM. The inhibition at 1 µM in assay [2] stood at 35%.

On to `CS(C)(=O)=Nc1cc(OCCF)c2c(Nc3ccc(F)cc3O[C@H]3COC[C@@H]3O)ncnc2c1` [Example 9.8], for which the IC50 in assay [1] was 39 nM. The inhibition at 1 µM in assay [2] came to 75%.

Take `Cc1cc(N=S(C)(C)=O)cc2ncnc(Nc3ccc(F)cc3O[C@@H]3CN(S(C)(=O)=O)C[C@H]3O)c12` [Example 2.11]: the IC50 in assay [1] came out at 14 nM. For the same compound, the inhibition at 1 µM in assay [2] is 79%.

For `O=S1(=Nc2cc(F)c3c(Nc4ccc(Cl)nc4O[C@H]4COC[C@@H]4O)ncnc3c2)CCCC1` [Example 1.20], the IC50 in assay [1] is 2 nM. In addition, in assay [2], the inhibition at 1 µM was found to be 97%.

Regarding `COc1cc(N=S2(=O)CCCC2)cc2ncnc(Nc3ccc(Cl)nc3O[C@H]3COC[C@@H]3O)c12` [Example 8.1], the IC50 in assay [1] was 3 nM. The inhibition at 1 µM in assay [2] came out at 97%.

Consider `CO[C@@H]1CN(S(C)(=O)=O)C[C@H]1Oc1cc(F)ccc1Nc1ncnc2cc(N=S3(=O)CCCC3)cc(C)c12` [Example 6.4], for which the IC50 in assay [1] came out at 20 nM. Also, the inhibition at 1 µM in assay [2] amounted to 62%.

For the compound `CS(C)(=O)=Nc1cc(Cl)c2c(Nc3cccnc3O[C@H]3COC[C@@H]3O)ncnc2c1` [Example 1.14], in assay [1], the IC50 was 5 nM. In addition, in assay [2], the inhibition at 1 µM was determined as 96%.

As to `Cc1cc(N=S2(=O)CCC(O)CC2)cc2ncnc(Nc3ccc(F)cc3O[C@@H]3COC[C@@H]3O)c12` (mixture of isomers) [Example 2.76], the IC50 in assay [1] turned out to be 7 nM. Also, the inhibition at 1 µM in assay [2] came out at 96%.

With `Cc1cc(N=S(C)(C)=O)cc2ncnc(Nc3ccc(F)cc3O[C@H]3COC[C@H]3OCC3CC3)c12` (racemic) [Example 7.2], the IC50 in assay [1] was determined as 6 nM. Besides, the inhibition at 1 µM in assay [2] is 94%.

For the compound `O=S1(=Nc2cc(Cl)c3c(Nc4cccnc4O[C@H]4COC[C@@H]4O)ncnc3c2)CCC1` [Example 1.13], the IC50 in assay [1] was 4 nM. The inhibition at 1 µM in assay [2] turned out to be 100%.

Take `CO[C@@H]1CN(S(C)(=O)=O)C[C@H]1Oc1cc(F)ccc1Nc1ncnc2cc(N=S(C)(C)=O)cc(C)c12` [Example 6.7]: the IC50 in assay [1] is 62 nM. For the same compound, in assay [2], the inhibition at 1 µM was 35%.

`COc1cc(N=S(C)(=O)C(C)C)cc2ncnc(Nc3ccc(F)cc3O[C@H]3COC[C@@H]3O)c12` (stereo partly drawn) [Example 9.9]: in assay [1], the IC50 is 7 nM. In addition, the inhibition at 1 µM in assay [2] was 94%.

Regarding `O=S1(=Nc2cc(Cl)c3c(Nc4ccc(F)cc4O[C@H]4COC[C@H]4O)ncnc3c2)CCC1` (single isomer, unassigned) [Example 1.35], the results for the IC50 in assay [1] and in assay [2] were 1 nM and 25 nM, respectively.

In the case of `CO[C@@H]1CN(CCF)C[C@H]1Oc1ncccc1Nc1ncnc2cc(N=S(C)(C)=O)cc(C)c12` [Example 5.3], the 50% inhibitory concentration (IC50) in assay [1] was 109 nM. In assay [2], the inhibition at 1 µM stood at 31%.

As for `CO[C@@H]1COC[C@@H]1Oc1cc(F)ccc1Nc1ncnc2cc(N=S(C)(C)=O)cc(Cl)c12` (racemic) [Example 1.4], in assay [1], the IC50 was found to be 2 nM. Also, the inhibition at 1 µM in assay [2] came out at 97%.

For `Cc1cc(N=S(C)(C)=O)cc2ncnc(Nc3ccc(F)cc3O[C@H]3CN(C)C[C@@H]3O)c12` [Example 2.62], the IC50 in assay [1] worked out at 33 nM. In addition, the inhibition at 1 µM in assay [2] was 78%.

With `Cc1cc(N=S(C)(C)=O)cc2ncnc(Nc3cccnc3O[C@@H]3CN(C)C[C@H]3O)c12` [Example 2.19], in assay [1], the IC50 was determined as 132 nM. The inhibition at 1 µM in assay [2] was determined as 45%.

Take `CO[C@@H]1CN(S(C)(=O)=O)C[C@H]1Oc1ncccc1Nc1ncnc2cc(N=S3(=O)CCCC3)cc(C)c12` [Example 6.5]: the IC50 in assay [1] was 28 nM. In addition, the inhibition at 1 µM in assay [2] amounted to 60%.

On to `CS(C)(=O)=Nc1cc(Cl)c2c(Nc3ccc(Cl)nc3O[C@H]3COC[C@@H]3O)ncnc2c1` [Example 1.19], for which the IC50 in assay [1] worked out at 4 nM. The inhibition at 1 µM in assay [2] was 99%.

In the case of `COc1cc(N=S(C)(C)=O)cc2ncnc(Nc3ccc(F)cc3O[C@H]3COC[C@@H]3O)c12` [Example 9.4], in assay [1], the IC50 came out at 7 nM. The inhibition at 1 µM in assay [2] is 102%.

Take `COc1cc(N=S(C)(=O)C(C)(C)C)cc2ncnc(Nc3ccc(F)cc3O[C@H]3COC[C@@H]3O)c12` (stereo partly drawn) [Example 9.18]: the IC50 in assay [1] was 8 nM. Moreover, the inhibition at 1 µM in assay [2] is 97%.

`Cc1cc(N=S2(=O)CCCC2)cc2ncnc(Nc3ccc(F)cc3O[C@H]3COC[C@H]3OCCF)c12` (racemic) [Example 10.1]: the IC50 in assay [1] amounted to 1 nM; in assay [2] it was 55 nM.

For `CS(C)(=O)=Nc1cc(OC(F)F)c2c(Nc3ccc(F)cc3O[C@H]3COC[C@@H]3O)ncnc2c1` [Example 1.11], in assay [1], the IC50 was found to be 32 nM. The inhibition at 1 µM in assay [2] was found to be 64%.

For the compound `COc1cc(N=S(C)(C)=O)cc2ncnc(Nc3ccc(F)cc3O[C@H]3COC[C@H]3OC)c12` (racemic) [Example 9.1], in assay [1], the IC50 is 2 nM. For the same compound, in assay [2], the inhibition at 1 µM came out at 96%.

For the compound `O=S1(=Nc2cc(Cl)c3c(Nc4ccc(F)cc4O[C@@H]4COC[C@H]4O)ncnc3c2)CCC1` [Example 1.22], the IC50 in assay [1] is 1 nM. In addition, in assay [2], the inhibition at 1 µM was 92%.

A word on the IC50: it is the concentration that gives 50% inhibition.
